#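 Values below derive from 48-hour exposures of cells grown in 96-well plates, with endpoints linearly interpolated between the two concentrations bracketing the appropriate inhibition level. GI50 = concentration required for 50% inhibition of growth. TGI marks complete inhibition of growth.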
# Assays:
# Experiment in all cases: inhibition of tumour cell growth, NCI panel, 48 h
# IGROV1 ovarian = test system: IGROV1 ovarian
# SF-539 CNS = test system: SF-539 CNS
# OVCAR-5 ovarian = test system: OVCAR-5 ovarian
# SK-MEL-5 melanoma = test system: SK-MEL-5 melanoma
# SW-620 colon = test system: SW-620 colon
# CCRF-CEM leukemia = test system: CCRF-CEM leukemia
# HCC-2998 colon = test system: HCC-2998 colon
# SF-295 CNS = test system: SF-295 CNS
# HT29 colon = test system: HT29 colon
# A498 renal = test system: A498 renal
# NCI/ADR-RES ovarian = test system: NCI/ADR-RES ovarian
# HCT-116 colon = test system: HCT-116 colon
# NCI-H460 lung = test system: NCI-H460 lung
# HOP-92 NSCLC = test system: HOP-92 NSCLC
# PC-3 prostate = test system: PC-3 prostate
# HCT-15 colon = test system: HCT-15 colon
# LOX IMVI melanoma = test system: LOX IMVI melanoma
# EKVX NSCLC = test system: EKVX NSCLC
# SK-MEL-2 melanoma = test system: SK-MEL-2 melanoma
# OVCAR-3 ovarian = test system: OVCAR-3 ovarian
# CAKI-1 renal = test system: CAKI-1 renal
# T-47D breast = test system: T-47D breast
# UACC-62 melanoma = test system: UACC-62 melanoma
# OVCAR-8 ovarian = test system: OVCAR-8 ovarian
# NCI-H522 lung = test system: NCI-H522 lung
# MALME-3M melanoma = test system: MALME-3M melanoma
# MDA-MB-435 = test system: MDA-MB-435
# M14 melanoma = test system: M14 melanoma
# COLO 205 colon = test system: COLO 205 colon
# HS 578T breast = test system: HS 578T breast
# MDA-MB-468 breast = test system: MDA-MB-468 breast
# KM12 colon = test system: KM12 colon
# UACC-257 melanoma = test system: UACC-257 melanoma
# OVCAR-4 ovarian = test system: OVCAR-4 ovarian
# DU-145 prostate = test system: DU-145 prostate
# SK-OV-3 ovarian = test system: SK-OV-3 ovarian
# HL-60(TB) leukemia = test system: HL-60(TB) leukemia
# SN12C renal = test system: SN12C renal
# TK-10 renal = test system: TK-10 renal
# BT-549 breast = test system: BT-549 breast
# SK-MEL-28 melanoma = test system: SK-MEL-28 melanoma
# MCF7 breast = test system: MCF7 breast
# ACHN renal = test system: ACHN renal
# SR leukemia = test system: SR leukemia
# MDA-MB-231 breast = test system: MDA-MB-231 breast
# SF-268 CNS = test system: SF-268 CNS
# K-562 leukemia = test system: K-562 leukemia
# A549 NSCLC = test system: A549 NSCLC
# RXF 393 renal = test system: RXF 393 renal
# UO-31 renal = test system: UO-31 renal
# U251 CNS = test system: U251 CNS
# SNB-75 CNS = test system: SNB-75 CNS
# NCI-H23 lung = test system: NCI-H23 lung
# 786-0 renal = test system: 786-0 renal
# MOLT-4 leukemia = test system: MOLT-4 leukemia
# HOP-62 NSCLC = test system: HOP-62 NSCLC
# SNB-19 CNS = test system: SNB-19 CNS
# NCI-H226 lung = test system: NCI-H226 lung
compound,measurement,setting,value
O=C(NCCCCC(c1ccc(F)cc1)c1ccc(F)cc1)Nc1ccc([N+](=O)[O-])c(C(F)(F)F)c1,GI50,IGROV1 ovarian,2.71 µM
same,TGI,IGROV1 ovarian,12.5 µM
same,GI50,SF-539 CNS,1.92 µM
same,TGI,SF-539 CNS,4.01 µM
same,GI50,OVCAR-5 ovarian,2.28 µM
same,TGI,OVCAR-5 ovarian,7.89 µM
same,GI50,SK-MEL-5 melanoma,1.59 µM
same,TGI,SK-MEL-5 melanoma,2.97 µM
same,GI50,SW-620 colon,2.26 µM
same,TGI,SW-620 colon,10.9 µM
same,GI50,CCRF-CEM leukemia,0.674 µM
same,TGI,CCRF-CEM leukemia,8.27 µM
same,GI50,HCC-2998 colon,2.61 µM
same,TGI,HCC-2998 colon,11.5 µM
same,GI50,SF-295 CNS,0.972 µM
same,TGI,SF-295 CNS,3.73 µM
same,GI50,HT29 colon,3.22 µM
same,TGI,HT29 colon,13.4 µM
same,GI50,A498 renal,1.84 µM
same,TGI,A498 renal,5.51 µM
same,GI50,NCI/ADR-RES ovarian,2.36 µM
same,TGI,NCI/ADR-RES ovarian,8.68 µM
same,GI50,HCT-116 colon,0.521 µM
same,TGI,HCT-116 colon,2.81 µM
same,GI50,NCI-H460 lung,1.61 µM
same,TGI,NCI-H460 lung,5.54 µM
same,GI50,HOP-92 NSCLC,1.03 µM
same,TGI,HOP-92 NSCLC,5.11 µM
same,GI50,PC-3 prostate,0.415 µM
same,TGI,PC-3 prostate,8.72 µM
same,GI50,HCT-15 colon,1.8 µM
same,TGI,HCT-15 colon,6.63 µM
same,GI50,LOX IMVI melanoma,1.69 µM
same,TGI,LOX IMVI melanoma,3.37 µM
same,GI50,EKVX NSCLC,2.3 µM
same,TGI,EKVX NSCLC,8.53 µM
same,GI50,SK-MEL-2 melanoma,1.92 µM
same,TGI,SK-MEL-2 melanoma,4.07 µM
same,GI50,OVCAR-3 ovarian,1.52 µM
same,TGI,OVCAR-3 ovarian,5.31 µM
same,GI50,CAKI-1 renal,2.07 µM
same,TGI,CAKI-1 renal,6.5 µM
same,GI50,T-47D breast,1.85 µM
same,TGI,T-47D breast,6.93 µM
same,GI50,UACC-62 melanoma,1.33 µM
same,TGI,UACC-62 melanoma,2.84 µM
same,GI50,OVCAR-8 ovarian,3.24 µM
same,TGI,OVCAR-8 ovarian,16 µM
same,GI50,NCI-H522 lung,1.74 µM
same,TGI,NCI-H522 lung,5.17 µM
same,GI50,MALME-3M melanoma,1.84 µM
same,TGI,MALME-3M melanoma,4.64 µM
same,GI50,MDA-MB-435,2.15 µM
same,TGI,MDA-MB-435,7.58 µM
same,GI50,M14 melanoma,2.08 µM
same,TGI,M14 melanoma,6.63 µM
same,GI50,COLO 205 colon,1.73 µM
same,TGI,COLO 205 colon,3.24 µM
same,GI50,HS 578T breast,2.22 µM
same,TGI,HS 578T breast,6.22 µM
same,GI50,MDA-MB-468 breast,0.559 µM
same,TGI,MDA-MB-468 breast,3.08 µM
same,GI50,KM12 colon,2.07 µM
same,TGI,KM12 colon,7.77 µM
same,GI50,UACC-257 melanoma,2.48 µM
same,TGI,UACC-257 melanoma,7.97 µM
same,GI50,OVCAR-4 ovarian,2.81 µM
same,TGI,OVCAR-4 ovarian,15.8 µM
same,GI50,DU-145 prostate,3.53 µM
same,TGI,DU-145 prostate,15.7 µM
same,GI50,SK-OV-3 ovarian,2.26 µM
same,TGI,SK-OV-3 ovarian,6.05 µM
same,GI50,HL-60(TB) leukemia,3.19 µM
same,TGI,HL-60(TB) leukemia,> 100 µM
same,GI50,SN12C renal,1.98 µM
same,TGI,SN12C renal,6.52 µM
same,GI50,TK-10 renal,2.94 µM
same,TGI,TK-10 renal,10.9 µM
same,GI50,BT-549 breast,1.86 µM
same,TGI,BT-549 breast,4.23 µM
same,GI50,SK-MEL-28 melanoma,3.03 µM
same,TGI,SK-MEL-28 melanoma,11.5 µM
same,GI50,MCF7 breast,2.14 µM
same,TGI,MCF7 breast,10.1 µM
same,GI50,ACHN renal,1.63 µM
same,TGI,ACHN renal,6.81 µM
same,GI50,SR leukemia,2.97 µM
same,TGI,SR leukemia,> 100 µM
same,GI50,MDA-MB-231 breast,1.82 µM
same,TGI,MDA-MB-231 breast,3.72 µM
same,GI50,SF-268 CNS,2.92 µM
same,TGI,SF-268 CNS,12.4 µM
same,GI50,K-562 leukemia,0.561 µM
same,TGI,K-562 leukemia,> 100 µM
same,GI50,A549 NSCLC,3.19 µM
same,TGI,A549 NSCLC,12.6 µM
same,GI50,RXF 393 renal,2.23 µM
same,TGI,RXF 393 renal,6.25 µM
same,GI50,UO-31 renal,1.82 µM
same,TGI,UO-31 renal,7.43 µM
same,GI50,U251 CNS,2.2 µM
same,TGI,U251 CNS,5.98 µM
same,GI50,SNB-75 CNS,1.65 µM
same,TGI,SNB-75 CNS,7.64 µM
same,GI50,NCI-H23 lung,2.27 µM
same,TGI,NCI-H23 lung,8.51 µM
same,GI50,786-0 renal,2.26 µM
same,TGI,786-0 renal,8.86 µM
same,GI50,MOLT-4 leukemia,2.81 µM
same,TGI,MOLT-4 leukemia,> 100 µM
same,GI50,HOP-62 NSCLC,1.99 µM
same,TGI,HOP-62 NSCLC,4.62 µM
same,GI50,SNB-19 CNS,2.91 µM
same,TGI,SNB-19 CNS,16.1 µM
same,GI50,NCI-H226 lung,2.16 µM
same,TGI,NCI-H226 lung,6.55 µM

# From PubChem BioAssay (NCI)
